Results taken from patent US20250333702A1, “CELLS WITH INCREASED IMMUNO-REGULATORY PROPERTIES AND METHODS FOR THEIR USE AND MANUFACTURE” (The Children's Medical Center Corporation, priority 2015, published 2025).
Counter-ions that a name gives are not always drawn.

How the values were obtained:
Assay type in all cases: cell-based
[1] = test system: Human CD34+ stem and progenitor cells; assay: Viability of CD34+ cells after ex vivo treatment with agent; design: concentration or dose not given beside the values; details: human CD34+ cells from mobilized peripheral blood, 24 hours at 37° C. with agent
PD-L1 (CD274) = assay: PD-L1 mRNA level (RT-qPCR) in CD34+ cells after ex vivo treatment with agent; details: mRNA by RT-qPCR, normalized against untreated cells; human CD34+ cells, 24 hours at 37° C.
Method: (§1) Human CD34+ stem and progenitor cells isolated from mobilized peripheral blood from three donors were ex vivo treated in […]® (StemCell Technologies) for 24 hours at 37° C. with one or more exogenous agents. Following cell treatments, gross mRNA levels were normalized against gross mRNA levels from the untreated cells […]. Levels of PD-L1 or IDO-1 mRNA were quantified from PICOPURE® isolated mRNA (Life Technologies) using an Assay on Demand TAQMAN® RT-qPCR assay (Life Technologies).

IDO-1 = IDO-1 mRNA level (RT-qPCR) in CD34+ cells after ex vivo treatment with agent; details: mRNA by RT-qPCR, normalized against untreated cells; human CD34+ cells, 24 hours at 37° C.
Method: as §1

| Molecule | % Viability ([1]; Table 1) [%] | PD-L1 fold change (PD-L1 (CD274)) [fold] | IDO-1 fold change (IDO-1) [fold] | % Viability ([1]; Table 2) [%] |
| --- | --- | --- | --- | --- |
| NC(=O)N/N=C/c1ccc([N+](=O)[O-])o1 [Nitro fural] | 87.2 | 10.28 | – | – |
| CN(C)CCC=C1c2ccccc2C=Cc2ccccc21 [Cyclobenzaprine] | – | – | 4.65 | 72.7 |
| C[C@H]1C[C@H]2[C@@H]3CCC4=CC(=O)C=C[C@]4(C)[C@@]3(F)[C@@H](O)C[C@]2(C)[C@@]1(O)C(=O)CO [Betamethasone] | 86.8 | 4.16 | – | – |
| Nc1nc(F)nc2c1ncn2[C@@H]1O[C@H](CO)[C@@H](O)[C@@H]1O [Fludarabine] | – | – | 4.22 | 82.5 |
| Nc1ccn([C@@H]2O[C@H](CO)[C@@H](O)C2(F)F)c(=O)n1 [Gemcitabine] | – | – | 30.13 | 81.4 |
| CNCCCC1c2ccccc2C=Cc2ccccc21 [Protriptyline] | – | – | 5.74 | 79.4 |
| OCCN1CCN(CCCN2c3ccccc3Sc3ccc(C(F)(F)F)cc32)CC1 [Fluphenazine] | 86 | 7.58 | 14.19 | 86 |
| Tyrphostin AG 835 | 61.3 | 32.57 | – | – |
| N#Cc1ccc(C(c2ccc(C#N)cc2)n2cncn2)cc1 [Letrozole] | – | – | 4.38 | 81.3 |
| C=CC(N)CCC(=O)O (stereo not drawn) [Vigabatrin] | 67 | 16.76 | – | – |
| CC1(C)O[C@@H]2C[C@H]3[C@@H]4C[C@H](F)C5=CC(=O)C=C[C@]5(C)[C@@]4(F)[C@@H](O)C[C@]3(C)[C@]2(C(=O)CO)O1 [Fluocinolone acetonide] | 82.9 | 10.58 | – | – |
| C[C@@H]1C[C@H]2[C@@H]3C[C@H](F)C4=CC(=O)C=C[C@]4(C)[C@@]3(Cl)[C@@H](O)C[C@]2(C)[C@H]1C(=O)COC(=O)C(C)(C)C [Clocortolone pivalate] | 84.9 | 8.64 | – | – |
| CN[C@@H]1[C@H](O[C@H]2[C@H](O[C@H]3[C@H](O)[C@@H](O)[C@H](NC(=N)N)[C@@H](O)[C@@H]3NC(=N)N)O[C@@H](C)[C@]2(O)CO)O[C@@H](CO)[C@H](O)[C@H]1O [Dihydrostreptomycin sulfate] | – | – | 6.19 | 84.5 |
| Nc1ccc(C(=O)O)c(O)c1 [4-aminosalicylic acid] | – | – | 4.07 | 85.3 |
| CNC(C)CCC=C(C)C.CNC(C)CCC=C(C)C.O=C(O)[C@@H](O)[C@H](O)[C@H](O)[C@@H](O)C(=O)O [Isometheptene mucate] | – | – | 6.98 | 83.7 |
| Cc1scc2c1N(C(=O)CN1CCN(C)CC1)c1ccccc1NC2=O [Telenzepine] | – | – | 4.82 | 88.9 |
| CCC(=O)O[C@]1(C(=O)CCl)[C@@H](C)C[C@H]2[C@@H]3CCC4=CC(=O)C=C[C@]4(C)[C@@]3(F)[C@@H](O)C[C@@]21C [Clobetasol propionate] | 83 | 9.27 | – | – |
